Values after ≈ are worked out from the molar mass of the structure shown.
Assays:
[1] = system: Staphylococcus aureus ATCC BAA-1556; assay: ≥ marks a high value that may be exact or a test limit, other limits are often not marked, values filed in µg/mL are converted to µM
[2] = system: Escherichia coli DH5alpha; assay: as above

SMILES	MIC [1] [µM]	MIC [2] [µM]
CC[C@H](C)[C@H](NC(=O)[C@H](Cc1c[nH]c2ccccc12)NC(=O)[C@H](CCCN=C(N)N)NC(=O)[C@H](CCCN=C(N)N)NC(=O)[C@H](C)NC(=O)[C@@H](N)CCCCN)C(=O)N[C@@H](CCCN=C(N)N)C(=O)N[C@@H](Cc1c[nH]c2ccccc12)C(=O)N[C@@H](CC(C)C)C(N)=O [KARRWIRWL]	25 (≈ 32.1 µg/mL)	–
CC(C)C[C@H](NC(=O)[C@H](CC(C)C)NC(=O)[C@H](CCCCN)NC(=O)[C@H](CC(C)C)NC(=O)[C@H](CC(C)C)NC(=O)[C@H](Cc1c[nH]c2ccccc12)NC(=O)[C@H](CCCCN)NC(=O)[C@H](CC(C)C)NC(=O)[C@H](CC(C)C)NC(=O)[C@@H](N)CCCCN)C(N)=O [KLLKWLLKLL]	3.13 (≈ 3.96 µg/mL)	–
CC(C)C[C@H](NC(=O)[C@H](CC(C)C)NC(=O)[C@H](CCCCN)NC(=O)[C@H](CC(C)C)NC(=O)[C@H](CC(C)C)NC(=O)[C@H](CC(C)C)NC(=O)[C@H](CC(C)C)NC(=O)[C@H](CC(C)C)NC(=O)[C@@H](N)CCCCN)C(N)=O [KLLLLLKLL]	≥ 100	–
CC[C@H](C)[C@H](NC(=O)[C@H](Cc1c[nH]c2ccccc12)NC(=O)[C@H](CCCN=C(N)N)NC(=O)[C@H](CC(C)C)NC(=O)[C@H](Cc1c[nH]c2ccccc12)NC(=O)[C@@H](N)CCCCN)C(=O)N[C@@H](CCCN=C(N)N)C(=O)N[C@@H](Cc1c[nH]c2ccccc12)C(=O)N[C@@H](CC(C)C)C(N)=O [KWLRWIRWL]	6.25 (≈ 8.47 µg/mL)	–
CC[C@H](C)[C@H](NC(=O)[C@H](Cc1c[nH]c2ccccc12)NC(=O)[C@H](C)NC(=O)[C@H](CCCN=C(N)N)NC(=O)[C@H](Cc1c[nH]c2ccccc12)NC(=O)[C@@H](N)CCCCN)C(=O)N[C@@H](CCCN=C(N)N)C(=O)N[C@@H](Cc1c[nH]c2ccccc12)C(=O)N[C@@H](CC(C)C)C(N)=O [KWRAWIRWL]	12.5 (≈ 16.4 µg/mL)	–
CC(C)C[C@H](NC(=O)[C@H](CC(C)C)NC(=O)[C@H](CCCCN)NC(=O)[C@H](CC(C)C)NC(=O)[C@H](CC(C)C)NC(=O)[C@H](Cc1c[nH]c2ccccc12)NC(=O)[C@H](CCCCN)NC(=O)[C@@H](N)CC(C)C)C(N)=O [LKWLLKLL]	12.5 (≈ 12.8 µg/mL)	–
CC(C)C[C@H](NC(=O)[C@H](CC(C)C)NC(=O)[C@H](CC(C)C)NC(=O)[C@H](CCCCN)NC(=O)[C@H](CC(C)C)NC(=O)[C@H](CC(C)C)NC(=O)[C@H](CCCCN)NC(=O)[C@H](CC(C)C)NC(=O)[C@@H](N)CC(C)C)C(N)=O [LLKLLKLLL]	3.13 (≈ 3.34 µg/mL)	–
CC(C)C[C@H](NC(=O)[C@H](CC(C)C)NC(=O)[C@H](CCCCN)NC(=O)[C@H](CC(C)C)NC(=O)[C@H](CC(C)C)NC(=O)[C@H](CC(C)C)NC(=O)[C@H](CCCCN)NC(=O)[C@H](CC(C)C)NC(=O)[C@@H](N)CC(C)C)C(=O)O [LLKLLLKLL]	≥ 100	–
CC(C)C[C@H](NC(=O)[C@H](CCCCN)NC(=O)[C@H](CC(C)C)NC(=O)[C@H](CC(C)C)NC(=O)[C@H](CC(C)C)NC(=O)[C@H](CCCCN)NC(=O)[C@H](CC(C)C)NC(=O)[C@@H](N)CC(C)C)C(N)=O [LLKLLLKL]	≥ 100	–
CC(C)C[C@H](NC(=O)[C@H](CCCCN)NC(=O)[C@H](CC(C)C)NC(=O)[C@H](CC(C)C)NC(=O)[C@H](CC(C)C)NC(=O)[C@H](CC(C)C)NC(=O)[C@H](CCCCN)NC(=O)[C@H](CC(C)C)NC(=O)[C@@H](N)CC(C)C)C(N)=O [LLKLLLLKL]	≥ 100	–
CC(C)C[C@H](NC(=O)[C@H](CCCCN)NC(=O)[C@H](CC(C)C)NC(=O)[C@H](CC(C)C)NC(=O)[C@H](CC(C)C)NC(=O)[C@H](CCCCN)NC(=O)[C@H](CC(C)C)NC(=O)[C@H](CC(C)C)NC(=O)[C@@H](N)CC(C)C)C(N)=O [LLLKLLLKL]	≥ 100	–
C[C@@H](O)[C@H](NC(=O)[C@H](CCCN=C(N)N)NC(=O)[C@H](CCCN=C(N)N)NC(=O)[C@H](CC(N)=O)NC(=O)[C@H](Cc1c[nH]c2ccccc12)NC(=O)[C@H](CCCN=C(N)N)NC(=O)[C@H](Cc1c[nH]c2ccccc12)NC(=O)[C@@H](N)CCCN=C(N)N)C(=O)NCC(=O)N[C@@H](CCCN=C(N)N)C(=O)N[C@@H](Cc1c[nH]c2ccccc12)C(=O)N[C@@H](CCCN=C(N)N)C(=O)N[C@@H](Cc1c[nH]c2ccccc12)C(=O)N[C@@H](Cc1ccc(O)cc1)C(=O)O [RWRWNRRTGRWRWY]	–	12.5 (≈ 26.7 µg/mL)

Reference: DBAASP
